Reference: PubChem BioAssay (NCI)
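Interpolation was linear, between the two tested concentrations surrounding the appropriate level; five concentrations were tested over 48 hours in 96-well plates. At the GI50, growth is halved. TGI denotes the concentration required for complete inhibition of growth.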

Experiments:
Assay in all cases: NCI-60 cell line screen, 48 h
[1] = tested on: NCI-H226 lung
[2] = tested on: NCI-H23 lung
[3] = tested on: NCI-H460 lung
[4] = tested on: NCI-H522 lung
[5] = tested on: NCI/ADR-RES ovarian
[6] = tested on: OVCAR-3 ovarian
[7] = tested on: OVCAR-4 ovarian
[8] = tested on: OVCAR-5 ovarian
[9] = tested on: OVCAR-8 ovarian
[10] = tested on: PC-3 prostate
[11] = tested on: RPMI-8226 leukemia
[12] = tested on: RXF 393 renal
[13] = tested on: SF-268 CNS
[14] = tested on: SF-295 CNS
[15] = tested on: SF-539 CNS
[16] = tested on: SK-MEL-2 melanoma
[17] = tested on: SK-MEL-28 melanoma
[18] = tested on: SK-MEL-5 melanoma
[19] = tested on: SK-OV-3 ovarian
[20] = tested on: SN12C renal
[21] = tested on: SNB-19 CNS
[22] = tested on: SNB-75 CNS
[23] = tested on: SR leukemia
[24] = tested on: SW-620 colon
[25] = tested on: T-47D breast
[26] = tested on: TK-10 renal
[27] = tested on: U251 CNS
[28] = tested on: UACC-257 melanoma
[29] = tested on: UACC-62 melanoma
[30] = tested on: UO-31 renal

With `CC(C)(C)c1ccc(NCc2cn(-c3ccc(C(=O)O)cc3)nc2-c2ccc(C#N)cc2)cc1` the TGI [1] was 35.6 µM, the GI50 [2] was 11.8 µM and the TGI [2] was 27.4 µM. It also gave a GI50 [3] of 4.41 µM, a TGI [3] of 17 µM and a GI50 [4] of 10.1 µM. The TGI [4] was 27.8 µM, the GI50 [5] was 5.81 µM and the TGI [5] was 23.4 µM. It also gave a GI50 [6] of 6.86 µM, a TGI [6] of 21.9 µM and a GI50 [7] of 6.23 µM. It also gave a TGI [7] of over 100 µM, a GI50 [8] of 14.2 µM and a TGI [8] of 28.7 µM. For the same molecule, the GI50 [9] was 4.66 µM, the TGI [9] was 17.4 µM and the GI50 [10] was 5.74 µM. It also gave a TGI [10] of 31.1 µM, a GI50 [11] of 3.91 µM and a TGI [11] of 25.2 µM. For the same molecule, the GI50 [12] was 6.94 µM, the TGI [12] was 21.4 µM and the GI50 [13] was 7.21 µM. For the same molecule, the TGI [13] was 26 µM, the GI50 [14] was 5.35 µM and the TGI [14] was 20.7 µM. The GI50 [15] was 5.96 µM, the TGI [15] was 19.7 µM and the GI50 [16] was 4.37 µM. The TGI [16] was 18.3 µM, the GI50 [17] was 4.3 µM and the TGI [17] was 17.8 µM. The GI50 [18] was 3.58 µM, the TGI [18] was 13.5 µM and the GI50 [19] was 16.1 µM. For the same molecule, the TGI [19] was 34.5 µM, the GI50 [20] was 7.81 µM and the TGI [20] was 20.4 µM. For the same molecule, the GI50 [21] was 4.44 µM, the TGI [21] was 16.8 µM and the GI50 [22] was 6.97 µM. For the same molecule, the TGI [22] was 21.3 µM, the GI50 [23] was 3.03 µM and the TGI [23] was 20.8 µM. The GI50 [24] was 7.65 µM, the TGI [24] was 25.1 µM and the GI50 [25] was 4.57 µM. It also gave a TGI [25] of over 100 µM, a GI50 [26] of 13.7 µM and a TGI [26] of 31 µM. It also gave a GI50 [27] of 4.64 µM, a TGI [27] of 17.5 µM and a GI50 [28] of 8.15 µM. For the same molecule, the TGI [28] was 42.8 µM, the GI50 [29] was 5.48 µM and the TGI [29] was 19 µM. For the same molecule, the GI50 [30] was 6.5 µM and the TGI [30] was 21.1 µM.
